Experimental data: publication PMC6757289, “Design and Characterization of SGK3-PROTAC1, an Isoform Specific SGK3 Kinase PROTAC Degrader” (ACS Chemical Biology, 2019)
Like-named read-outs stand apart in the source and are kept apart here.

Columns and labels:
Assay in all cases: kinase profiling panel
Type in all cases: biochemical
CDK2-Cyclin A = CDK2-Cyclin A (Homo sapiens, UniProt P24941); conditions: read-out: % Activity Remaining
Source text: (§1) Protein kinase profiling against a Dundee panel of 140 protein kinases was undertaken at the International Centre for Protein Kinase Profiling. The result for each kinase was presented as a mean kinase activity of the reaction taken in triplicate relative to a control sample treated with DMSO. Assay conditions and abbreviations are available at http://www.kinase-screen.mrc.ac.uk.

CK2 = CK2 (Homo sapiens, UniProt P68400); conditions: read-out: % Activity Remaining
Source text: as §1

CSK = CSK (Homo sapiens, UniProt P41240); conditions: read-out: % Activity Remaining
Source text: as §1

DYRK3 = target: T1, DYRK3 (Homo sapiens, UniProt O43781); conditions: read-out: % Activity Remaining
T1 sequence (O43781 1-588): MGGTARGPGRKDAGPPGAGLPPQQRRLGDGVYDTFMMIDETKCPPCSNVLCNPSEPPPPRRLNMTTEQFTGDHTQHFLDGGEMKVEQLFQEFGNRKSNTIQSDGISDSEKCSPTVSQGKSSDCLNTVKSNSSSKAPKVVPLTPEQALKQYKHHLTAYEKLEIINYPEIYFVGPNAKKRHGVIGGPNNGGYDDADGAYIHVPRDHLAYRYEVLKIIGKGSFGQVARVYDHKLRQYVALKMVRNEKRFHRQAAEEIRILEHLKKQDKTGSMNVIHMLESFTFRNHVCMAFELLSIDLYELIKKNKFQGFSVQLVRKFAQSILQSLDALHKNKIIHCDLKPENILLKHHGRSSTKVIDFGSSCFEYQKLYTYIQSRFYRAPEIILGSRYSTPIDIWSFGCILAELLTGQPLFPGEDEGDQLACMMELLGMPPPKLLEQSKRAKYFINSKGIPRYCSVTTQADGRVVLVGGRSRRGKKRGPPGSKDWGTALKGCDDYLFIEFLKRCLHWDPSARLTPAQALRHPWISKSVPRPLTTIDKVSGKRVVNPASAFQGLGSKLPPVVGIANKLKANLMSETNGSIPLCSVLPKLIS
Source text: as §1

IRAK4 = target: T2, IRAK4 (Homo sapiens, UniProt Q9NWZ3); conditions: read-out: % Activity Remaining
T2 sequence (Q9NWZ3 1-460): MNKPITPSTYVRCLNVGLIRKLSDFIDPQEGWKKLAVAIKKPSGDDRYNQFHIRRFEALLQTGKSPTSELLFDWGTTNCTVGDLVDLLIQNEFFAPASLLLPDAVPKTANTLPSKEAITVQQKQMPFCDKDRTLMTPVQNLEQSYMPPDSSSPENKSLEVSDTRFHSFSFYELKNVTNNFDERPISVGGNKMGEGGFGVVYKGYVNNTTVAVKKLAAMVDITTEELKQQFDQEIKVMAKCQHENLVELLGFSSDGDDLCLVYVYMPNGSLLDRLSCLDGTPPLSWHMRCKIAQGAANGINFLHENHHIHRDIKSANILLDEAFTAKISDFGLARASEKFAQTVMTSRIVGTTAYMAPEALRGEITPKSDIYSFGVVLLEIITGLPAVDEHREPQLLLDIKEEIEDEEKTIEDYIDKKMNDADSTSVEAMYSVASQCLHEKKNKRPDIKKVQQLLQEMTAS
Source text: as §1

Lck = Lck (Homo sapiens, UniProt P06239); conditions: read-out: % Activity Remaining
Source text: as §1

MARK2 = MARK2 (Homo sapiens, UniProt Q7KZI7); conditions: read-out: % Activity Remaining
Source text: as §1

MSK1 = MSK1 (Homo sapiens, UniProt O75582); conditions: read-out: % Activity Remaining
Source text: as §1

PINK = target: T3, PINK (Tribolium castaneum, UniProt D6WMX4)
T3 sequence (D6WMX4 1-570): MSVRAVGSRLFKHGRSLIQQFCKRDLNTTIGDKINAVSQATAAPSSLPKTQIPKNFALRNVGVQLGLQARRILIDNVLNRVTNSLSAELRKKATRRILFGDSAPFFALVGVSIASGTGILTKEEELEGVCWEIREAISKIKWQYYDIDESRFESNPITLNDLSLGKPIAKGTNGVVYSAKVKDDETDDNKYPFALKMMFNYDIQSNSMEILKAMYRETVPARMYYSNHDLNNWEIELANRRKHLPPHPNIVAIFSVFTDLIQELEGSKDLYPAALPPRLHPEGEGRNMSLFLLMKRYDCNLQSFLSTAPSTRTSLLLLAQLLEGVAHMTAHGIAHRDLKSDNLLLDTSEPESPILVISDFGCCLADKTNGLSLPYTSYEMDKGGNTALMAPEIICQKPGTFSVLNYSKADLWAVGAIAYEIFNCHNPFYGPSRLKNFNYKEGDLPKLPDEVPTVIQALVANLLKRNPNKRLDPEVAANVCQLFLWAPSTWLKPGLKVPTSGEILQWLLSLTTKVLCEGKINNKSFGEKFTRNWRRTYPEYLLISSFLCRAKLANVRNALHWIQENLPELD
Source text: as §1

TTBK2 = TTBK2 (Homo sapiens, UniProt Q6IQ55); conditions: read-out: % Activity Remaining
Source text: as §1

ZAP70 = target: T4, ZAP70 (Homo sapiens, UniProt P43403); conditions: read-out: % Activity Remaining
T4 sequence (P43403 1-619): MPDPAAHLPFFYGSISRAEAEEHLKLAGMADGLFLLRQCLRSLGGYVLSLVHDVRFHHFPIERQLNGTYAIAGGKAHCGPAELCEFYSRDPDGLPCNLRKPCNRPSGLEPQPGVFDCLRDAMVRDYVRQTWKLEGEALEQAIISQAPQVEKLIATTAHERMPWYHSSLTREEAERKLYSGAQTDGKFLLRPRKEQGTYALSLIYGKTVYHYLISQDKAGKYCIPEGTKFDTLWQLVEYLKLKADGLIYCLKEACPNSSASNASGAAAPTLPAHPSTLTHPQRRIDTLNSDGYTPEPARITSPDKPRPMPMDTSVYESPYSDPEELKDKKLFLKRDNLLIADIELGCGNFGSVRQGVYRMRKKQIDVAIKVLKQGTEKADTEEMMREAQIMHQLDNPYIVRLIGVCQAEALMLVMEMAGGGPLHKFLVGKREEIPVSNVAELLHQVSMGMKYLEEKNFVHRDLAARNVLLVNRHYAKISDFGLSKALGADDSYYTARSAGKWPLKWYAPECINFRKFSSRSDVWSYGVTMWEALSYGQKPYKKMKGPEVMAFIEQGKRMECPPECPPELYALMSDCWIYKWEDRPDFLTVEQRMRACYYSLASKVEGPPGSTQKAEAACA
Source text: as §1

MSK1, sequence (O75582 whole entry): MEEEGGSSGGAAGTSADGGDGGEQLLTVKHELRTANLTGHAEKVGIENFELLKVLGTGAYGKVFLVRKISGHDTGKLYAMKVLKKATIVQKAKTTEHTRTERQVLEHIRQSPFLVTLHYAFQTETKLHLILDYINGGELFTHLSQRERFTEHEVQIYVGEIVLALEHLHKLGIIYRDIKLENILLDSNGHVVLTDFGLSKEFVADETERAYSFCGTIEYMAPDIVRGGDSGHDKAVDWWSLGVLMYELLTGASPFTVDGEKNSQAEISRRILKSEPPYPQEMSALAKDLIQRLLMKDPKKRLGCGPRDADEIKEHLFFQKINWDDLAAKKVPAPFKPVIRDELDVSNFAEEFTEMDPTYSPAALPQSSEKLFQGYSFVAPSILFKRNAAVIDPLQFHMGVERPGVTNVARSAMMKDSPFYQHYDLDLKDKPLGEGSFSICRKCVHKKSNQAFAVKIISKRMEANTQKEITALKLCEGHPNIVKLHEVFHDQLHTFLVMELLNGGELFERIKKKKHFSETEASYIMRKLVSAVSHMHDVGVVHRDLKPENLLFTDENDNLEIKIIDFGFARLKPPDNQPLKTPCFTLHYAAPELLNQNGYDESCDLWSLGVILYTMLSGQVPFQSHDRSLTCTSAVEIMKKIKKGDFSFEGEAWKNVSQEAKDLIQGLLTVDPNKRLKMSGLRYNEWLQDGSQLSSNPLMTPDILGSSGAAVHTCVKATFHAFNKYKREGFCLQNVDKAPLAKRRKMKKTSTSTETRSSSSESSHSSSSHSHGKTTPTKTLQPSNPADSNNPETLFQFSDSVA
CK2, sequence (P68400 whole entry): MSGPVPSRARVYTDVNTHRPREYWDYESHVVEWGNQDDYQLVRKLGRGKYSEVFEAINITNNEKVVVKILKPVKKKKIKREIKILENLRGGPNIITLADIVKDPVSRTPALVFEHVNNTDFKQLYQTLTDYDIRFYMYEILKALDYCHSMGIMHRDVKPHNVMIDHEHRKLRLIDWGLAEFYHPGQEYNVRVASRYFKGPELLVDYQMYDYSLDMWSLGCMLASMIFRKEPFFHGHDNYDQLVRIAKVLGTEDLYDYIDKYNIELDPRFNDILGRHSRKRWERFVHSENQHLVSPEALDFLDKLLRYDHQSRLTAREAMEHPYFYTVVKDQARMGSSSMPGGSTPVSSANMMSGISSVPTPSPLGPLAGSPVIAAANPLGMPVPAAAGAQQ
CSK, sequence (P41240 whole entry): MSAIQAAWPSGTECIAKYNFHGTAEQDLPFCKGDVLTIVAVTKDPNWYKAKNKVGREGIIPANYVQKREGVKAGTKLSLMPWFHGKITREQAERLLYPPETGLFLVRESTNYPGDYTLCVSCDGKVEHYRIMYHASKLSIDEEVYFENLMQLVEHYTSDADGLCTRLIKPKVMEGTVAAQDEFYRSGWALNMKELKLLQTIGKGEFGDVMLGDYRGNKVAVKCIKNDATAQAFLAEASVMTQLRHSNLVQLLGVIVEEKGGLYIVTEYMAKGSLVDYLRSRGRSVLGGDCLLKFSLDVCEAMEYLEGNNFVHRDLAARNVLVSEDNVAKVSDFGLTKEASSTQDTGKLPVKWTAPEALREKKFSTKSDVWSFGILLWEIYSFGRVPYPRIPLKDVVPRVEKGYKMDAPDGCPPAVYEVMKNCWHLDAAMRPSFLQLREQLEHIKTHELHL
MARK2, sequence (Q7KZI7 whole entry): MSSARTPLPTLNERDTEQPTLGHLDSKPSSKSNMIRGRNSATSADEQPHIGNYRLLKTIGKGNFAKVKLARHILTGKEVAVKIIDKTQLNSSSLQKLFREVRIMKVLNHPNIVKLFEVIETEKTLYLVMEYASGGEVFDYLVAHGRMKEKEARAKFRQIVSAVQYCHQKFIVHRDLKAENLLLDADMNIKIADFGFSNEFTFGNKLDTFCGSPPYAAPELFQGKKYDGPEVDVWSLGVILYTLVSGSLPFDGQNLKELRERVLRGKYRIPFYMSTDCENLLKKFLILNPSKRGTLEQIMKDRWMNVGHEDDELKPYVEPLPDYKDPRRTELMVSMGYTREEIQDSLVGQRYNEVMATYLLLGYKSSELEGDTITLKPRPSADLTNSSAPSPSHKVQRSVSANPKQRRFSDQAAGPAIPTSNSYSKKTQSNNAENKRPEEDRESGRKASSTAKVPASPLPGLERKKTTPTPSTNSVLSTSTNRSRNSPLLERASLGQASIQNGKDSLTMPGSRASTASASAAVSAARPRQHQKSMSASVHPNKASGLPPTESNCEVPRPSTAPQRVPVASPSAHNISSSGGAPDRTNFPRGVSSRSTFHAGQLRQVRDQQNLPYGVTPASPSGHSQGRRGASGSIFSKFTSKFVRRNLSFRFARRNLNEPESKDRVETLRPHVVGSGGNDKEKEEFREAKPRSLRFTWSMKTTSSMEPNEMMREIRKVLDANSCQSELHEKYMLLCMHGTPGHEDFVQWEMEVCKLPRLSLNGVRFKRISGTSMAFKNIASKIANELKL
Lck, sequence (P06239 whole entry): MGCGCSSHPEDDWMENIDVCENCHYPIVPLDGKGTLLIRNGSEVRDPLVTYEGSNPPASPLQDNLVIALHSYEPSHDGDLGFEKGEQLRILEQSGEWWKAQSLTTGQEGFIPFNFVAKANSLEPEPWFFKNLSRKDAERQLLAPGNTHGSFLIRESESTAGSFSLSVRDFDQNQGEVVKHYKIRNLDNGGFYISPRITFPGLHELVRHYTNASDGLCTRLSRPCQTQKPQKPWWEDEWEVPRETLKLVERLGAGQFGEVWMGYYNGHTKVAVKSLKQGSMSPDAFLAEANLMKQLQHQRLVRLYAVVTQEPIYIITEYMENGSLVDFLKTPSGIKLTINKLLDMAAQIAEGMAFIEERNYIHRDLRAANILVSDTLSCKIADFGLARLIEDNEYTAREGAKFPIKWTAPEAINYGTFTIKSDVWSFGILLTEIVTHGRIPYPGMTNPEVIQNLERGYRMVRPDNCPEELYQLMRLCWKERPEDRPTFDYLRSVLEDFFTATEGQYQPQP
TTBK2, sequence (Q6IQ55 whole entry): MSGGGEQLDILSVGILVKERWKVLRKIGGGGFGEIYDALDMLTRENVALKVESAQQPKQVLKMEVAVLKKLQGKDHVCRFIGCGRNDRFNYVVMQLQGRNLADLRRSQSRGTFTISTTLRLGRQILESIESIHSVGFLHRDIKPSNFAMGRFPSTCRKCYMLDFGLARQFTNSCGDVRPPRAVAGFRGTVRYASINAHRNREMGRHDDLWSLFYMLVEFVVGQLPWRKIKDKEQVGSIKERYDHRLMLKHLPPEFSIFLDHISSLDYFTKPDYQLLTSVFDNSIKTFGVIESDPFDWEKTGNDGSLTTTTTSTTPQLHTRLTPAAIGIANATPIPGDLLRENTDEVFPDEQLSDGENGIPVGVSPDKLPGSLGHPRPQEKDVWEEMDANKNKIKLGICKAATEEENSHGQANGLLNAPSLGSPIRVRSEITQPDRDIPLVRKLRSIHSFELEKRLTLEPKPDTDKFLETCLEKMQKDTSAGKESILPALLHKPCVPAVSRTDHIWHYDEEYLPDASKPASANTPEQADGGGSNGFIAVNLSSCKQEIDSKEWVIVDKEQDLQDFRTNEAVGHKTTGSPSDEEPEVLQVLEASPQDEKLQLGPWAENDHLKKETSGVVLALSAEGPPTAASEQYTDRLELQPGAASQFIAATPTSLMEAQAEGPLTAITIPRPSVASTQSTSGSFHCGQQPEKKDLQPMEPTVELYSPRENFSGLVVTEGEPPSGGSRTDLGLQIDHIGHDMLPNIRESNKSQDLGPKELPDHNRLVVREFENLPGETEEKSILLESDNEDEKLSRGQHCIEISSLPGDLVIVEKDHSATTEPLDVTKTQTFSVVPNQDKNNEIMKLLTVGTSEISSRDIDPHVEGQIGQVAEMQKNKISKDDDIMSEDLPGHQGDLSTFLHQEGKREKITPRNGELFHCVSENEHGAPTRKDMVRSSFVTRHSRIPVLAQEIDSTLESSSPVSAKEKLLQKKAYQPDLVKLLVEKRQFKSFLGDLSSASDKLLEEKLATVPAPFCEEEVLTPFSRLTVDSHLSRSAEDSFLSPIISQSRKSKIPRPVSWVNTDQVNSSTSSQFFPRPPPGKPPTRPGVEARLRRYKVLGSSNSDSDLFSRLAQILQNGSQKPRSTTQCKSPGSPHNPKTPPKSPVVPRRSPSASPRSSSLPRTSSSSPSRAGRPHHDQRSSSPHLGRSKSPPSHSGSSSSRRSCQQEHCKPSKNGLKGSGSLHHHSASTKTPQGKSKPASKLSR

SMILES | remaining activity at 1 µM (CDK2-Cyclin A) [%] | remaining activity at 1 µM (CK2; 1 µM) [%] | remaining activity at 1 µM (CSK) [%] | remaining activity at 1 µM (DYRK3) [%] | remaining activity at 1 µM (IRAK4) [%] | remaining activity at 1 µM (Lck) [%] | remaining activity at 1 µM (MARK2) [%] | remaining activity at 1 µM (MSK1) [%] | remaining activity at 1 µM (PINK) [%] | remaining activity at 1 µM (TTBK2) [%] | remaining activity at 1 µM (ZAP70) [%] | remaining activity at 1 µM (CDK2-Cyclin A; 1 µM) [%] | remaining activity at 1 µM (CSK; 1 µM) [%] | remaining activity at 1 µM (DYRK3; 1 µM) [%] | remaining activity at 1 µM (IRAK4; 1 µM) [%] | remaining activity at 1 µM (Lck; 1 µM) [%] | remaining activity at 1 µM (MARK2; 1 µM) [%] | remaining activity at 1 µM (MSK1; 1 µM) [%] | remaining activity at 1 µM (TTBK2; 1 µM) [%] | remaining activity at 1 µM (ZAP70; 1 µM) [%] | further results
COc1ccc(Cl)c(S(=O)(=O)Nc2ccc(-c3nc(OC[C@H]4CNCCO4)c4c(C)n[nH]c4n3)cc2)c1 [290-R, reference compound] | 94 | 100 | 66 | 89 | 74 | 89 | 113 | 10 | 99 | 114 | 98 |  |  |  |  |  |  |  |  |  | 
Cc1ccc(F)c(S(=O)(=O)Nc2ccc(-c3nc(OC[C@H]4CNCCO4)c4cn[nH]c4n3)cc2)c1 [308-R, reference compound] | 61 |  | 96 | 99 | 105 | 98 | 94 | 7 | 119 | 87 | 101 |  |  |  |  |  |  |  |  |  | remaining activity at 1 µM (CK2): 103%
Cc1ccc(F)c(S(=O)(=O)Nc2ccc(-c3nc(OC[C@H]4CN(CCCCCCOCCOCCOCC(=O)N[C@H](C(=O)N5C[C@H](O)C[C@H]5C(=O)NCc5ccc(-c6scnc6C)cc5)C(C)(C)C)CCO4)c4cn[nH]c4n3)cc2)c1 [SGK3-PROTAC1] |  | 90 |  |  |  |  |  |  | 108 |  |  | 101 | 118 | 102 | 114 | 124 | 102 | 50 | 94 | 75 | 
Cc1ccc(F)c(S(=O)(=O)Nc2ccc(-c3nc(OC[C@H]4CN(CCCCCCOCCOCCOCC(=O)N[C@H](C(=O)N5C[C@@H](O)C[C@H]5C(=O)NCc5ccc(-c6scnc6C)cc5)C(C)(C)C)CCO4)c4cn[nH]c4n3)cc2)c1 [cisSGK3-PROTAC1] |  | 96 |  |  |  |  |  |  | 109 |  |  | 103 | 113 | 104 | 98 | 116 | 112 | 56 | 90 | 75 | 
